Measured values published in publication PMC5617480 (Oncotarget, 2017).

How the values were obtained:
[1] = test system: BEL-7404 cells; experiment: Cell cycle analysis (PI flow cytometry); format: cell-based, human; conditions: BEL-7404, 10 μM, 48 h; untreated 24.76%
Protocol: Platinum(II)-based drugs were widely used in anticancer chemotherapies, therefore, we performed experiments to test the potency of chiral platinum(II) complexes 4–6 for inducing senescence and apoptosis in BEL-7404 cells. […] We next investigated the effect of complexes 4–6 on the induction of apoptosis. BEL-7404 cells were incubated with complexes 4 (10 and 20 μM), 5 (10 and 20 μM) and 6 (5, 10 and 20 μM) for 24 h, respectively, and then these cells staining with PI and Annexin-V-FITC were determined by flow cytometry (Figure 3A and Supplementary Figure 18). As shown in Figure 3A and Supplementary Figure 18, after treated of complexes 4–6 with 10 μM for 24 h, the percentage of apoptotic cells (including early-stage and late-stage, Q2+Q4) was 13.1%, 7.0% and 25.4%, respectively, whereas the normal cells was only 6.1%. We further investigated the ability of complexes 4–6 (5, 10 and 20 μM) to induce BEL-7404 cell cycle arrest (Figure 3B and Supplementary Figure 19). Cells were treated with complexes 4–6 at 10 μM for 48 h, the cell cycle arrest was determined by using flow cytometry. […]
Apoptosis analysis c-myc antibody, or anti-β-actin primary antibody and the Apoptosis was detected by flow cytometric analysis corresponding secondary antibody were used to detect of annexin V staining. […] Then, cells were incubated with annexin V-FITC and PI for 1.0 h at Staining for SA-β-Gal activity was carried out room temperature in the dark and immediately analyzed according to Moore and Chen reports. […] The data are presented as biparametric After the long-term incubation with complexes 4–6, the dot plots showing PI red fluorescence vs annexin V-FITC growth medium was aspirated and the BEL-7404 cells green fluorescence. were fixed in 2% formaldehyde/0.2% glutaraldehyde for 15.0 min at room temperature. […] Finally, the extraction, RT-PCR, and the selective binding to G4s by BEL-7404 cell cycle was determined with FACS Calibur complexes 4–6 was according to the our previous reported flow cytometer (BD) and analyzed using Cell Quest. […]

[2] = test system: HTG21 (human telomeric) G4; experiment: FID assay; format: binding; conditions: for HTG21DC50: FID; for ctDNADC50/HTG21DC50: FID selectivity ratio
Protocol: (§1) We asked whether chiral platinum(II) complexes 4–6 have the ability to bind to G-quadruplex DNA. To address this, FRET assays, CD spectroscopy, G4-FID assays, and fluorescence titration analysis were performed. […] For G4-HTG21, the ^G4DC50 values of complexes 4–6 were 1.23, 1.26 and 0.99 μM, respectively; while, for G4-Pu27, the ^G4DC50 values were 1.01, 0.89, and 0.82 μM, respectively. In addition, the ^ctDNADC50/^G4DC50 ratio of the HTG21 and Pu27 G4s treated with complexes 4–6 was in the range of 50.54-90.65 and 71.56-110.67 folds, respectively. To further evaluate the binding ability of complexes 4–6 to Pu27 and HTG21G4s, CD spectroscopy and fluorescence titration analysis were performed. […] The quenching ability of complexes 4–6 to HTG21 and Pu27 G4 DNA fluorescence can be quantitatively estimated by their respective quenching constant (Kq), which was derived from the Stern-Volmer quenching equation. […] Finally, the selective binding of complexes 4–6 towards G4 DNA was analyzed by FRET-melting assays. […] In contrast, the ΔTm value for the F32T+H20M duplex DNA in the presence of complexes 4–6 was 1.18, 1.34, and 0.78 °C under the same conditions (Figure 4A). Altogether, our data indicated complexes 4–6, especially complex 6, is the best binder to G4 DNA, which caused DNA complex displaying the highest thermodynamic stability. […]
(§2) Supplementary Figure 20: FID results onto 4 (A), 5 (B) and 6 (C) toward DNA in sodium cacodylate buffer solution. […]

[3] = test system: ctDNA; experiment: FID assay; format: binding; conditions: for ctDNADC50: FID; for ctDNADC50/ctDNADC50: FID selectivity ratio
Protocol: as §1, §2

[4] = test system: HTG21 G4; experiment: Fluorescence titration (Stern-Volmer quenching); format: binding, human; conditions: HTG21 G4-DNA, compound 20 μM, 100 mM K+
Protocol: as §1
Supplementary Figure 25: Fluorescence emission spectra of compounds (20 μM) in 100 mM K+ solution in the absence and
presence of human telomeric G-quadruplex DNA with 4 (A), 5 (B) and 6 (C), respectively.

[5] = test system: F21T (DNA, G4) GGGCTAGGGCTAGGGCTAGGG; experiment: FRET melting; conditions: 100 mM K+; 10 mM Tris-HCl, pH 7.35; 2.0 μM compound, 1.0 μM DNA
[6] = test system: FPu18T (DNA, G4) AGGGTGGGGAGGGTGGGG; experiment: FRET melting; conditions: 100 mM K+; 10 mM Tris-HCl, pH 7.35; 2.0 μM compound, 1.0 μM DNA
[7] = test system: F32T+H20M (DNA, duplex) CCGCATCTCTACATTCAAGAACTGGCATGCGG/GCCAGTTCTTGAATGTAGAG; experiment: FRET melting; conditions: 100 mM K+; 10 mM Tris-HCl, pH 7.35; 2.0 μM compound, 1.0 μM DNA
[8] = test system: HTG21 (DNA, G4) GGGTTAGGGTTAGGGTTAGGG; experiment: fluorescent intercalator displacement (FID); conditions: thiazole orange displaced

Molecule	ΔTm [5] [°C]	ΔTm [6] [°C]	ΔTm [7] [°C]	G4DC50 [8] [µM]	percentage of cells at S phase [1] [%]	HTG21DC50 [2] [µM]	ctDNADC50 [3] [µM]	ctDNADC50/ctDNADC50 [3]	Extent of quenching (%) [4] [%]	Kq (quenching constant, Stern-Volmer) [4]	ctDNADC50/HTG21DC50 [2]
cis-[PtCl2(S-(–)-FOA)] [complex 6]	–	–	–	–	38.61	0.99	90.73	1.00	28.42	4.65×10^4 L·mol–1	–
O=C(NC[C@H](O)CO)c1cnc2c3c(cccc13)-c1ccccc1C2=O.[Cl-].[Cl-].[Pt+2] [ligand 3, S-(–)-FOA]	20.07	23.01	0.78	0.99	–	–	–	–	–	–	–
cis-[PtCl2(R-(+)-FOA)] [complex 5]	–	–	–	–	32.33	1.26	63.69	1.00	27.21	4.36×10^4 L·mol–1	50.54
cis-[PtCl2(R/S-(±)-FOA)] [complex 4]	–	–	–	–	37.59	1.23	75.87	1.00	27.34	4.60×10^4 L·mol–1	61.68

Further lines, with some results ahead:

ΔTm [5] [°C]	ΔTm [6] [°C]	ΔTm [7] [°C]	G4DC50 [8] [µM]	Molecule	percentage of cells at S phase [1] [%]	HTG21DC50 [2] [µM]	ctDNADC50 [3] [µM]	ctDNADC50/ctDNADC50 [3]	Extent of quenching (%) [4] [%]	Kq (quenching constant, Stern-Volmer) [4]	ctDNADC50/HTG21DC50 [2]
12.95	16.66	1.34	1.26	O=C(NC[C@@H](O)CO)c1cnc2c3c(cccc13)-c1ccccc1C2=O.[Cl-].[Cl-].[Pt+2] [ligand 2, R-(+)-FOA]	–	–	–	–	–	–	–
13.19	19.15	1.18	1.23	O=C(NCC(O)CO)c1cnc2c3c(cccc13)-c1ccccc1C2=O.[Cl-].[Cl-].[Pt+2] (racemic) [ligand 1, R/S-(±)-FOA]	–	–	–	–	–	–	–
